In the series the test system is Danio rerio larvae. The experiment in a line: In vivo toxicity, maximum tolerated concentration. The following applies: zebrafish larvae, immersion from 96 hpf for 18 h (120 hpf), 5-150 μM tested. Here is the method:
Zebrafish (Danio rerio, strain AB) was maintained at the Experimental Medicine Center, Medical University of Lublin, Poland. Embryos and larvae up to 120 h postfertilization (hpf) were kept under generally accepted environmental conditions, i.e., in incubators at 28.5 °C, with 14/10 h light/dark cycles. The embryos of the Zebrafish were harvested after the natural reproduction process.
Three compounds showing low IC50 values determined on cancer lines in in vitro tests (2b, 4a) and compound 1a characterized by low cytotoxicity were used for in vivo tests. We also conducted research for coumarin. These compounds were dissolved in dimethyl sulfoxide (DMSO) (Sigma-Aldrich, St. Louis, MO, USA) and diluted in the zebrafish medium (pH 7.1–7.3; 5.0 mM NaCl, 0.17 mM KCl, 0.33 mM CaCl2, 0.33 mM MgSO4) to achieve a final DMSO concentration of 1% w/v. Twenty-four hpf zebrafish embryos were investigated under a light microscope, and […] fertilized embryos (n = 60) were selected and transferred into 48-well plates (5 embryos per well). Larvae were incubated in 1 mL of the zebrafish medium for up to 3 days after fertilization.
On the fourth day postfertilization (96 hpf), the larvae (10 individuals per group) were incubated in solutions of coumarin or its three derivatives (1a, 2b, 4a) at selected concentrations (5, 10, 25, 50, 75, 100, 150 μM), along with control solutions: negative control (zebrafish medium) and solvent control (1% DMSO in zebrafish medium). The maximum tolerated concentration (MTC) was calculated to assess the toxicity of the compounds and extracts. […] Larvae were individually inspected under a microscope for signs of acute locomotor dysfunction, including a weak reaction to light tail stimulation with a fine needle, disrupted posture, body deformities, protruding eyes, slowed or absent heartbeat, and mortality.

We go through one molecule from PMC12529164, “Design, Synthesis, Structure–Activity Relationships, and Preliminary Anticancer Properties of Menthol-Modified Coumarin Esters and 3,4-Dihydrocoumarin Derivatives” (ACS Omega, 2025).

On to `CC(C)[C@@H]1CC[C@@H](C)C[C@H]1OC(=O)C1C(=O)Oc2ccccc2C1P(=O)(c1ccccc1)c1ccccc1` (mixture of isomers) [Compound 4a, (1R,2S,5R)-2-Isopropyl-5-methylcyclohexyl-4-(diphenylphosphoryl)-2-oxochromane-3-carboxylate], for which the “maximum tolerated concentration (MTC)” value stood at 75 µM.
